Laboratory results taken from ChEMBL document CHEMBL1150527, “Bifunctional antitumor agents: a DNA interactive enediyne from the pyrrolo[9,10-b]phenanthrene template” (Bioorg Med Chem Lett, 1997).

Columns and labels:
Type in all cases: nucleic-acid assay
Nucleic Acid [1] = test: DNA cleavage activity using supercoiled bacteriophage (piX174Rf II) DNA at 10e-5 M concentration (5% control)
Nucleic Acid [2] = test: DNA cleavage activity using supercoiled bacteriophage (piX174Rf III) DNA at 10e-5 M concentration (0% control)
Nucleic Acid [3] = test: DNA cleavage activity using supercoiled bacteriophage (piX174Rf II) DNA at 10e-3 M concentration (5% control)
Nucleic Acid [4] = test: DNA cleavage activity using supercoiled bacteriophage (piX174Rf I) DNA at 10e-4 M concentration (95% control)
Nucleic Acid [5] = test: DNA cleavage activity using supercoiled bacteriophage (piX174Rf III) DNA at 10e-3 M concentration (0% control)
Nucleic Acid [6] = test: DNA cleavage activity using supercoiled bacteriophage (piX174Rf III) DNA at 10e-4 M concentration (0% control)
Nucleic Acid [7] = test: DNA cleavage activity using supercoiled bacteriophage (piX174Rf II) DNA at 10e-4 M concentration (5% control)
Nucleic Acid [8] = test: DNA cleavage activity using supercoiled bacteriophage (piX174Rf I) DNA at 10e-5 M concentration (95% control)
Nucleic Acid [9] = test: DNA cleavage activity using supercoiled bacteriophage (piX174Rf I) DNA at 10e-3 M concentration (95% control)

| Structure (SMILES) | Cleavage (Nucleic Acid [1]) | Cleavage (Nucleic Acid [2]) | Cleavage (Nucleic Acid [3]) | Cleavage (Nucleic Acid [4]) | Cleavage (Nucleic Acid [5]) | Cleavage (Nucleic Acid [6]) | Cleavage (Nucleic Acid [7]) | Cleavage (Nucleic Acid [8]) | Cleavage (Nucleic Acid [9]) |
| --- | --- | --- | --- | --- | --- | --- | --- | --- | --- |
| O=C(OCC1CC#C/C=C\C#CCC1)c1cc2c3ccccc3c3ccccc3c2[nH]1 (stereo not drawn) | 21% | 0% | 88% | 45% | 5% | 0% | 55% | 79% | 7% |
| O=C(OCC1CC#C/C=C\C#CCC1)c1ccccc1 (stereo not drawn) | 7% | 0% | 82% | 78% | 3% | 0% | 22% | 93% | 15% |
